Legend:
PSVT [1] = experiment: Example 5: heart rate during PSVT prior to conversion to sinus rhythm; assay type: in vivo, human
Excerpt: Each PSVT was documented by an ambulatory cardiac monitoring system that was placed on the chest after symptoms began. Baseline (average of four values before drug administration), and every minute of heart rate data were captured from baseline until one minute before the PSVT was converted to sinus rhythm. […]

[2] = Formation of concentrated aqueous acid addition salt solutions of compound I; assay type: physicochemical; settings: free base treated with methanesulfonic acid or acetic acid
PSVT [3] = experiment: Example 2: Phase 3 study of self-administered 70 mg dose for PSVT in an at-home setting; assay type: in vivo, human
Experimental: A multi-center, randomized, double-blind, placebo-controlled study to evaluate the efficacy and safety of a 70 mg self-administered dose of compound I in an at-home setting was conducted. […] PSVT episodes were documented by an ambulatory Cardiac Monitoring System (CMS) placed on the chest by the patient or caregiver when symptoms began and were recorded at least 5 hours of continuous electrocardiogram (ECG).
The primary efficacy endpoint was defined as an adjudicated termination of a positively adjudicated episode of PSVT and conversion to sinus rhythm for at least 30 seconds. The primary efficacy endpoint was evaluated using the time to conversion of an episode of PSVT to sinus rhythm after study drug administration as the primary efficacy variable. The study included a screening visit, a test dose randomization visit, follow-up visits, a treatment period, and a final study visit. Before randomization, all patients received a 70 mg test dose of compound I to evaluate tolerability. The test dose administration took place at the study site under medical supervision while the patient was in sinus rhythm (SR). Patients who passed the test dose were randomized in a 2:1 ratio to 70 mg compound I or placebo. During the treatment period, all randomized patients performed a sequence of steps upon self-identifying symptoms of an episode of PSVT, including contacting a telephone coach for assistance on study procedures, applying a CMS on their chest, performing a vagal maneuver (VM), and study drug self-administration.
For administration, the patients placed the applicator of the system into their nose. The subject's held the nasal delivery system between the second and third fingers, with the thumb placed on the actuator. […] The subjects then apply pressure to the actuator, which forces the liquid solution containing the dissolved acetate salt of compound I through the device, causing the solution to be released from the tip of the applicator as a spray. The solution was administered to the patients as two single pump spray dosages in order to deliver 70 mg of compound I to the nasal epithelium.
The presence of an episode of PSVT and termination were evaluated by an independent Adjudication Committee. The Adjudication Committee's evaluations were done using the complete CMS ECG recorded during the patient's PSVT episode.

[4] = Permeation of compound I through the nasal epithelium with EDTA in the formulation
Excerpt: The nasal vestibule, which accounts for approximately 3-4% of the surface area of the nasal cavity, lacks tight junctions altogether and is thus not affected by calcium chelating agents. […] As such, it has been postulated that the nasal epithelium is not susceptible to permeability modulation by EDTA (Aungst, et al., Pharma. Res., 1998, 5:305-308). Additionally, the ability of EDTA to increase permeation of a compound through the nasal epithelium is attenuated as the molecular weight of the compound increases (Nakanishi, et al., Chem. Pharm. Bull., 1984, 32:1628-1632).

[5] = Experimental: Randomized, double-blind, placebo-controlled, ethnobridging PK/PD study, 35, 70 and 105 mg doses were evaluated.
[6] = patients who converted to sinus rhythm

## COC(=O)c1cccc(CCN(C)CCCC(C#N)(c2ccc(OC)c(OC)c2)C(C)C)c1 (stereo not shown) [compound I, methyl 3-(2-((4-cyano-4-(3,4-dimethoxyphenyl)-5-methylhexyl)(methyl)amino)ethyl)benzoate]
PSVT [1]; 70 mg, 3 min, during PSVT
  mean change in heart rate from baseline (±SE): −10 bpm
PSVT [1]; 70 mg, 10 min, during PSVT
  mean change in heart rate from baseline (±SE): −16 bpm
PSVT [1]; 70 mg, 30 min, during PSVT
  mean change in heart rate from baseline (±SE): −14 bpm
PSVT [1]; 70 mg, 40 min, during PSVT
  mean change in heart rate from baseline (±SE): −13 bpm
PSVT [1]; 70 mg, during PSVT
  persistence of decrease in heart rate: sustained through the 60-minute observation period
PSVT [1]; 70 mg, within the first minute, during PSVT
  mean change in heart rate from baseline (±SE): −5 bpm
PSVT [1]; [6]
  maximal change from baseline in heart rate, converters to sinus rhythm in <30 minutes versus >30 minutes: significant difference
  maximal change from baseline in heart rate, converters to sinus rhythm in <60 minutes versus >60 minutes: significant difference
[2]
  salt solution concentration attainable: concentrations sufficient for nasal administration
PSVT [3]; 70 mg
  incidences of severe adverse events or adverse events of interest vs placebo: no significant differences
  median time to conversion: 25 min
  most common adverse events: local to the nose, including nasal irritation and congestion
  patients converted to SR within 30 minutes after study drug administration: 54%
PSVT [3]; 70 mg vs placebo, secondary endpoint
  patient reported treatment satisfaction (TSQM-9): nominal statistically significant improvements in favor of compound I over placebo
PSVT [3]; 70 mg, 5-hour observation period
  hazard ratio HR (95% CI), time to conversion of PSVT to SR vs placebo: 1.086 (0.726, 1.623)
PSVT [3]; 70 mg, over 5 hours following treatment, more than 100 patients in PSVT
  safety and tolerability: safe and well tolerated
PSVT [3]; 70 mg, post hoc analysis
  absolute difference in conversion rate vs placebo by 30 minutes: ~19%
[4]
  permeation through the nasal epithelium: increased the permeation of compound I through the nasal epithelium
[5]; 35, 70 and 105 mg doses
  time at which pharmacodynamic effect began to decrease: 15 min
  time to increase of PR interval and HR: ≤ 10 min
[5]; duration of PR prolongation exceeding 10% from baseline
  duration of pharmacodynamic effect: 30 to 45 min
[5]; human, in vivo
  exposure, dose proportionality: increased in a dose proportional manner between 35 and 70 mg but not between the 70 and 105 mg doses
